Test system: 293T cells
Format: cell-based

Which “production of gectosomes encapsulated Nluc cargo” value does the source give for `C=C(C)[C@@H]1CCC(C)=C[C@H]1c1c(O)cc(CCCCC)cc1O` [CBD, cannabidiol] here?
The value was “induces an elevated production”.
